Values of other authors, collected in PMC9056484 (Advances in Therapy, 2022).
Like-named read-outs stand apart in the source and are kept apart here.

Legend:
early PD patients [1] = system: early PD patients
[2] = system: Parkinson's disease patients; conditions: pramipexole monotherapy
[3] = system: early Parkinson's disease patients
[4] = not given; remark: listed apart in the source
early PD patients [5] = conditions: higher doses of pramipexole in early PD
[6] = system: early Parkinson disease patients
[7] = system: early Parkinson's disease patients; conditions: pramipexole 1.5 mg/day, 9 months
dopamine D3 receptor = conditions: read-out: Ki, D3 receptor
human albumin = conditions: concentration range 1–100 ng/ml
[8] = system: Parkinson's disease patients; conditions: for effects on clinical progression (in words): delayed-start design trial
[9] = system: early Parkinson disease patients; conditions: rasagiline 1 mg/day, Week 26
[10] = not given; remark: listed apart in the source
[11] = Pramipexole 0.5 mg BID, n = 81, PRAMI-BID
[12] = Pramipexole 0.5 mg TID, n = 80, PRAMI-BID
[13] = Pramipexole 0.75 mg BID, n = 73, PRAMI-BID
[14] = Pramipexole 1.5 mg, n = 54, STEP-UP
[15] = Pramipexole groups combined (1.5–6 mg), N = 213, STEP-UP

Structure (SMILES): NC1CCc2ccccc21 (centres unmarked) [1-aminoindan]
- MAO-B inhibition (in words) (MAO-B): weak MAO-B inhibitor

Structure (SMILES): CCCN[C@H]1CCc2nc(N)sc2C1 [Pramipexole]
- incidence of somnolence (early PD patients [1]; pramipexole pivotal studies in early PD): 22%
- patients with hallucinations (early PD patients [1]; pramipexole up to 4.5 mg/day, early PD pivotal trials): 16.5%
- disease-modifying effect (in words) [2]: did not find evidence of a disease-modifying effect
- affinity for D1 receptors, times lower than that to D3 receptors (D1 receptors): around 200,000 times
- Adverse event: Abnormal dreams [3, 11]: 3 (3.7)
- Adverse event: Constipation [3, 11]: 8 (9.9)
- Adverse event: Dizziness [3, 11]: 9 (11.1)
- Adverse event: Fatigue [3, 11]: 6 (7.4)
- Adverse event: Headache [3, 11]: 7 (8.6)
- Adverse event: Insomnia [3, 11]: 3 (3.7)
- Adverse event: Nausea [3, 11]: 18 (22.2)
- Adverse event: Peripheral edema [3, 11]: 2 (2.5)
- Adverse event: Somnolence [3, 11]: 14 (17.3)
- Adverse event: Abnormal dreams [3, 12]: 5 (6.3)
- Adverse event: Constipation [3, 12]: 5 (6.3)
- Adverse event: Dizziness [3, 12]: 9 (11.3)
- Adverse event: Fatigue [3, 12]: 4 (5.0)
- Adverse event: Headache [3, 12]: 4 (5.0)
- Adverse event: Insomnia [3, 12]: 6 (7.5)
- Adverse event: Nausea [3, 12]: 15 (18.8)
- Adverse event: Peripheral edema [3, 12]: 3 (3.8)
- Adverse event: Somnolence [3, 12]: 20 (25.0)
- Adverse event: Abnormal dreams [3, 13]: 2 (2.7)
- Adverse event: Constipation [3, 13]: 7 (9.6)
- Adverse event: Dizziness [3, 13]: 5 (6.8)
- Adverse event: Fatigue [3, 13]: 7 (9.6)
- Adverse event: Headache [3, 13]: 6 (8.2)
- Adverse event: Insomnia [3, 13]: 11 (15.1)
- Adverse event: Nausea [3, 13]: 11 (15.1)
- Adverse event: Peripheral edema [3, 13]: 4 (5.5)
- Adverse event: Somnolence [3, 13]: 16 (21.9)
- Effects on PDQ-39 Total scores versus placebo (in words) ([3]; pramipexole 1.0 mg/day (0.5 mg BID), P = 0.32): not significantly different from placebo
- PDQ-39 Total scores, treatment effect vs. placebo ([3]; pramipexole 1.5 mg/day (0.75 mg BID or 0.5 mg TID), P ≤ 0.05): 2.1 points
- placebo-adjusted improvements in Total UPDRS ([3]; pramipexole 1–1.5 mg/day, Week 12): 4.4–4.7 points
- protein bound: < 20%
- absolute oral bioavailability [4]: > 90%
- absorbed dose eliminated unchanged ([4]; almost exclusively by the kidneys): > 90%
- placebo-adjusted changes from baseline in ESS score (early PD patients [5]): 1.0–2.1
- Adverse event: Confusion [6, 14]: 3 (5.6)
- Adverse event: Constipation [6, 14]: 4 (7.4)
- Adverse event: Dizziness [6, 14]: 10 (18.5)
- Adverse event: Fatigue [6, 14]: 4 (7.4)
- Adverse event: Hallucination [6, 14]: 4 (7.4)
- Adverse event: Headache [6, 14]: 5 (9.2)
- Adverse event: Insomnia [6, 14]: 2 (3.7)
- Adverse event: Nausea [6, 14]: 9 (16.7)
- Adverse event: Somnolence [6, 14]: 9 (16.7)
- Adverse event: Confusion [6, 15]: 9 (4.2)
- Adverse event: Constipation [6, 15]: 23 (10.8)
- Adverse event: Dizziness [6, 15]: 39 (18.3)
- Adverse event: Hallucination [6, 15]: 14 (6.6)
- Adverse event: Headache [6, 15]: 24 (11.3)
- Adverse event: Insomnia [6, 15]: 16 (7.5)
- Adverse event: Nausea [6, 15]: 42 (19.7)
- Adverse event: Somnolence [6, 15]: 58 (27.2)
- patients with hallucinations ([6]; pramipexole 1.5 mg, within 10 weeks): > 5%
- improvement of Total UPDRS scores versus placebo ([6]; pramipexole 1.5 mg/day, Week 10): 5.2 points
- improvement of Total UPDRS scores versus placebo [7]: 4.8 points
- Ki (dopamine D3 receptor): 0.5 nM

Structure (SMILES): C#CCN[C@@H]1CCc2ccccc21 [Rasagiline, N-propargyl-1-(R)-aminoindan]
- mean extent of binding to human albumin (human albumin): 61–63%
- effects on clinical progression (in words) ([8]; rasagiline 1.0 mg): statistically significant effects on clinical progression
- improvement of Total UPDRS scores versus placebo ([8]; rasagiline 1 mg/day, ~ Week 36): 3.0 points
- effects on clinical progression (in words) ([8]; rasagiline 2.0 mg): but not 2.0 mg, had statistically significant effects
- MAO-B inhibition (in words) (MAO-B): potent and irreversible inhibitor of MAO-B
- improvement of Total UPDRS scores versus placebo [9]: 4.2 points
- absolute bioavailability [10]: about 36%
- time to peak plasma concentration (Cmax) [10]: approximately 1 hour
